For this experiment, the system named is test plant species. Briefly: Post-emergent herbicidal activity test (greenhouse, foliar spray, visual growth reduction). Conditions: post-emergence, 336 h, 140 g ai/ha, 14 days after application. Type of experiment: in vivo. As for the experimental part: Post-emergent Test: Seeds or nutlets of the desired test plant species were planted in Sun Gro Metro-Mix® 360 planting mixture, which typically has a pH of 6.0 to 6.8 and an organic matter content of about 30 percent, in plastic pots with a surface area of 64 square centimeters. In some aspects, to ensure good germination and healthy plants, a fungicide treatment and/or other chemical or physical treatment was applied. The plants were grown for 7-21 d in a greenhouse with an approximate 15 h photoperiod which was maintained at 23-29° C. during the day and 22-28° C. during the night. Nutrients and water were added on a regular basis and supplemental lighting was provided with overhead metal halide 1000-Watt lamps as necessary. Plants were used for testing when they reached the first or second true leaf stage. A weighed amount, determined by the highest rate to be tested, of each test compound was placed in a 25 mL glass vial and was dissolved in 4 mL of a 97:3 v/v mixture of acetone and DMSO to obtain concentrated stock solutions. […] The concentrated stock solutions obtained were diluted with 20 mL of an aqueous mixture containing acetone, water, isopropyl alcohol, DMSO, […] crop oil concentrate, and X-77 surfactant in a 48.5:39:10:1.5:1.0:0.02 v/v ratio to obtain spray solutions containing the application rate. Compound requirements are based upon a 12 mL application volume at a rate of 187 liters per hectare (L/ha). Formulated compounds were applied to the plant material with an overhead Mandel track sprayer equipped with […] nozzles calibrated to deliver 187 L/ha over an application area of 0.64 square meters at a spray height of 18 inches (43 cm) above the average plant canopy height. Control plants were sprayed in the same manner with the solvent blank. The treated plants and control plants were placed in a greenhouse as described above and watered by subirrigation to prevent wash-off of the test compounds. After 14 d, the condition of the test plants as compared with that of the nontreated and control plants was determined visually and scored on a scale of 0 to 100 percent where 0 corresponds to no injury and 100 corresponds to complete control. In the reporting of the results, Table A: Percent Growth Reduction Conversion Table was used.

Setting [1] is: ALOMY: blackgrass (Alopecurus myosuroides), read-out: Visual Growth Reduction (%) 14 Days After Application, ALOMY.
The mark [2] stands for this setting: AMARE: redroot pigweed (Amaranthus retroflexus), read-out: Visual Growth Reduction (%) 14 Days After Application, AMARE.
[3] abbreviates: AVEFA: wild oat (Avena fatua), read-out: Visual Growth Reduction (%) 14 Days After Application, AVEFA.
Where [4] appears, read: CHEAL: lambsquarters (Chenopodium album), read-out: Visual Growth Reduction (%) 14 Days After Application, CHEAL.
[5] abbreviates: CIRAR: canada thistle (Cirsium arvense), read-out: Visual Growth Reduction (%) 14 Days After Application, CIRAR.
Setting [6] is: CYPES: yellow nutsedge (Cyperus esculentus), read-out: Visual Growth Reduction (%) 14 Days After Application, CYPES.
The mark [7] stands for this setting: DIGSA: crabgrass (Digitaria sanguinalis), read-out: Visual Growth Reduction (%) 14 Days After Application, DIGSA.
The mark [8] stands for this setting: ECHCG: barnyardgrass (Echinochloa crus-galli), read-out: Visual Growth Reduction (%) 14 Days After Application, ECHCG.
The mark [9] stands for this setting: KCHSC: kochia (Bassia scoparia), read-out: Visual Growth Reduction (%) 14 Days After Application, KCHSC.
The mark [10] stands for this setting: ORYSA: rice (Oryza sativa), read-out: Visual Growth Reduction (%) 14 Days After Application, ORYSA.
[11] abbreviates: SETFA: giant foxtail (Setaria faberi), read-out: Visual Growth Reduction (%) 14 Days After Application, SETFA.
Where [12] appears, read: SORVU: grain sorghum (Sorghum vulgare), read-out: Visual Growth Reduction (%) 14 Days After Application, SORVU.
The mark [13] stands for this setting: STEME: common chickweed (Stellaria media), read-out: Visual Growth Reduction (%) 14 Days After Application, STEME.
Where [14] appears, read: TRZAS: wheat, spring (Triticum aestivum), read-out: Visual Growth Reduction (%) 14 Days After Application, TRZAS.

Read-outs that look alike come from different tables or passages of the source.

For `COC(=O)c1nc(-c2cc(F)c(C)cc2Cl)ccc1Cl` [F46, Methyl 3-chloro-6-(2-chloro-5-fluoro-4-methylphenyl) picolinate], the pest or weed control at 140 g/ha by setting is: under setting [1], 0 to 29%; under setting [2], 0 to 29%; under setting [3], 0 to 29%; under setting [4], 60 to 74%; under setting [5], 0 to 29%; under setting [6], 0 to 29%. For the same molecule, the pest or weed control at 140 g/ha by setting is: under setting [7], 0 to 29%; under setting [8], 0 to 29%; under setting [9], 0 to 29%; under setting [10], 0 to 29%; under setting [11], 0 to 29%; under setting [12], 0 to 29%. Moreover, the pest or weed control at 140 g/ha reads like this: under setting [13], 0 to 29%; under setting [14], 0 to 29%.
For the molecule `COC(=O)c1nc(-c2cc(OC)c(Cl)cc2Cl)ccc1Cl` [F47, Methyl 3-chloro-6-(2,4-dichloro-5-methoxyphenyl) picolinate], the pest or weed control at 140 g/ha is, setting by setting: under setting [1], 0 to 29%; under setting [2], 0 to 29%; under setting [3], 0 to 29%; under setting [4], 0 to 29%; under setting [5], 0 to 29%; under setting [6], 0 to 29%. In addition, the pest or weed control at 140 g/ha by setting is: under setting [7], 0 to 29%; under setting [8], 0 to 29%; under setting [9], 0 to 29%; under setting [10], 0 to 29%; under setting [11], 0 to 29%; under setting [12], 0 to 29%. The pest or weed control at 140 g/ha by setting is: under setting [13], 0 to 29%; under setting [14], 0 to 29%.
On to `COC(=O)c1nc(-c2ccc(Cl)c(C)c2Cl)ccc1Cl` [F48, Methyl 3-chloro-6-(2,4-dichloro-3-methylphenyl) picolinate], for which the pest or weed control at 140 g/ha is 0 to 29% under setting [1]; 60 to 74% under setting [2]; 0 to 29% under setting [3]; 95 to 100% under setting [4]; 0 to 29% under setting [5]; 0 to 29% under setting [6]. Moreover, the pest or weed control at 140 g/ha reads like this: under setting [7], 0 to 29%; under setting [8], 0 to 29%; under setting [9], 45 to 59%; under setting [10], 0 to 29%; under setting [11], 0 to 29%; under setting [12], 0 to 29%. Besides, the pest or weed control at 140 g/ha was 0 to 29% under setting [13] and 0 to 29% under setting [14].
Take `COC(=O)c1nc(-c2cc(C)c(C)cc2Cl)ccc1Cl` [F49, Methyl 3-chloro-6-(2-chloro-4,5-dimethylphenyl) picolinate]: the pest or weed control at 140 g/ha by setting is: under setting [1], 0 to 29%; under setting [2], 30 to 44%; under setting [3], 0 to 29%; under setting [4], 45 to 59%; under setting [5], 0 to 29%; under setting [6], 0 to 29%. Further, the pest or weed control at 140 g/ha is 0 to 29% under setting [7]; 0 to 29% under setting [8]; 0 to 29% (IPOHE: ivy-leaf morning glory (Ipomoea hederacea), read-out: Visual Growth Reduction (%) 14 Days After Application, IPOHE); 0 to 29% under setting [9]; 0 to 29% under setting [10]; 0 to 29% under setting [11]. Besides, the pest or weed control at 140 g/ha is, setting by setting: under setting [12], 0 to 29%; under setting [13], 0 to 29%; under setting [14], 0 to 29%.
Regarding `COC(=O)c1nc(-c2cc(Cl)c(C#N)cc2Cl)ccc1Cl` [F50, Methyl 3-chloro-6-(2,5-dichloro-4-cyanophenyl) picolinate], the pest or weed control at 140 g/ha runs as follows: under setting [1], 0 to 29%; under setting [2], 0 to 29%; under setting [3], 0 to 29%; under setting [4], 60 to 74%; under setting [5], 0 to 29%; under setting [6], 0 to 29%. Further, the pest or weed control at 140 g/ha reads like this: under setting [7], 0 to 29%; under setting [8], 0 to 29%; under setting [9], 0 to 29%; under setting [10], 0 to 29%; under setting [11], 0 to 29%; under setting [12], 0 to 29%. Moreover, the pest or weed control at 140 g/ha runs as follows: under setting [13], 0 to 29%; under setting [14], 0 to 29%.
Take `COC(=O)c1nc(-c2cc(C)c(Cl)cc2Cl)ccc1Cl` [F51, Methyl 3-chloro-6-(2,4-dichloro-5-methylphenyl) picolinate]: the pest or weed control at 140 g/ha reads like this: under setting [1], 0 to 29%; under setting [2], 45 to 59%; under setting [3], 0 to 29%; under setting [4], 45 to 59%; under setting [5], 0 to 29%; under setting [6], 0 to 29%. Besides, the pest or weed control at 140 g/ha is 0 to 29% under setting [7]; 0 to 29% under setting [8]; 0 to 29% under setting [9]; 0 to 29% under setting [10]; 0 to 29% under setting [11]; 0 to 29% under setting [12]. Moreover, the pest or weed control at 140 g/ha under setting [13] was in the range of 0 to 29% and the pest or weed control at 140 g/ha under setting [14] lay within 0 to 29%.
Regarding `COC(=O)c1nc(-c2ccc(Cl)cc2Cl)ccc1C` [F52, Methyl 6-(2,4-dichlorophenyl)-3-methylpicolinate], the pest or weed control at 140 g/ha by setting is: under setting [1], 0 to 29%; under setting [2], 0 to 29%; under setting [3], 0 to 29%; under setting [4], 0 to 29%; under setting [5], 0 to 29%; under setting [6], 0 to 29%. For the same molecule, the pest or weed control at 140 g/ha by setting is: under setting [7], 0 to 29%; under setting [8], 0 to 29%; under setting [9], 0 to 29%; under setting [10], 0 to 29%; under setting [11], 0 to 29%; under setting [12], 0 to 29%. For the same molecule, the pest or weed control at 140 g/ha lay within 0 to 29% under setting [13] and 0 to 29% under setting [14].
Take `COC(=O)c1nc(-c2ccc(C(F)(F)F)cc2Cl)ccc1C` [F53, Methyl 6-(2-chloro-4-(trifluoromethyl)phenyl)-3-methylpicolinate]: the pest or weed control at 140 g/ha is 60 to 74% under setting [1]; 95 to 100% under setting [2]; 75 to 84% under setting [3]; 95 to 100% under setting [4]; 95 to 100% under setting [5]; 0 to 29% under setting [6]. Also, the pest or weed control at 140 g/ha was in the range of 95 to 100% under setting [7]; 0 to 29% under setting [8]; 0 to 29% under setting [9]; 0 to 29% under setting [10]; 0 to 29% under setting [11]; 0 to 29% under setting [12]. Also, the pest or weed control at 140 g/ha under setting [13] is 0 to 29% and the pest or weed control at 140 g/ha under setting [14] was 0 to 29%.

For the origin of these results see patent publication US20230017045A1, “PYRIDINE AND PYRIMIDINE CARBOXYLATE HERBICIDES AND METHODS OF USE THEREOF” (Dow AgroSciences LLC, priority 2017, published 2023).
